Experimental data published in ChEMBL document CHEMBL1201862, “PubChem BioAssay data set” (2004).
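1) Cells in 96-well plates. 2) Compound, 48 h, 5 concentrations. 3) Linear interpolation between surrounding doses. 4) Unreached endpoint = highest concentration. The concentration for 50% growth inhibition is given as GI50.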 The source made the active and inactive calls. Rule as the data show it: active = GI50 up to about 1.1 µM and inactive = higher.

Assays:
Experiment in all cases: DTP human tumour cell line panel, 48 h
OVCAR-3 = system: OVCAR-3
SK-MEL-28 = system: SK-MEL-28
HOP-62 = system: HOP-62
SF-539 = system: SF-539
K562 = system: K562
T47D = system: T47D
A549 = system: A549
COLO 205 = system: COLO 205
MCF7 = system: MCF7
M14 = system: M14
SR = system: SR
NCI-H522 = system: NCI-H522
KM12 = system: KM12
CAKI-1 = system: CAKI-1
PC-3 = system: PC-3
RPMI-8226 = system: RPMI-8226
SK-MEL-2 = system: SK-MEL-2
SK-MEL-5 = system: SK-MEL-5
NCI-H23 = system: NCI-H23
UO-31 = system: UO-31
MOLT-4 = system: MOLT-4
MDA-MB-231 = system: MDA-MB-231
U-251 = system: U-251
SF-295 = system: SF-295
IGROV-1 = system: IGROV-1
OVCAR-8 = system: OVCAR-8
NCI/ADR-RES = system: NCI/ADR-RES
MDA-N = system: MDA-N
HOP-92 = system: HOP-92
SNB-75 = system: SNB-75
SK-OV-3 = system: SK-OV-3
Malme-3M = system: Malme-3M
NCI-H226 = system: NCI-H226
BT-549 = system: BT-549
786-0 = system: 786-0
CCRF-CEM = system: CCRF-CEM
UACC-62 = system: UACC-62
MDA-MB-435 = system: MDA-MB-435
Hs-578T = system: Hs-578T
OVCAR-5 = system: OVCAR-5
A498 = system: A498
SN12C = system: SN12C
HCC 2998 = system: HCC 2998
HL-60 = system: HL-60
SNB-19 = system: SNB-19
NCI-H460 = system: NCI-H460
OVCAR-4 = system: OVCAR-4
DU-145 = system: DU-145
HCT-15 = system: HCT-15
RXF 393 = system: RXF 393
SW-620 = system: SW-620
HCT-116 = system: HCT-116
ACHN = system: ACHN
SF-268 = system: SF-268
EKVX = system: EKVX
UACC-257 = system: UACC-257
HT-29 = system: HT-29
LOX IMVI = system: LOX IMVI
TK-10 = system: TK-10

Measured: GI50

Cn1c(CCC2(C)Cc3ccccc3C(=O)O2)cc2ccccc2c1=O (stereo not drawn)
inactive: OVCAR-3 21 µM | SK-MEL-28 28.8 µM | HOP-62 18.5 µM | SF-539 43.1 µM | K562 2.96 µM | T47D 24.3 µM | A549 31.2 µM | COLO 205 27.1 µM | MCF7 24.2 µM | M14 16.4 µM | SR 34.4 µM | NCI-H522 16.4 µM | KM12 4.66 µM | CAKI-1 13.9 µM | PC-3 17.7 µM | RPMI-8226 17.3 µM | SK-MEL-2 24.2 µM | SK-MEL-5 17.2 µM | NCI-H23 24.7 µM | UO-31 15.7 µM | MOLT-4 > 10 µM | MDA-MB-231 45.1 µM | U-251 45.5 µM | SF-295 > 100 µM | IGROV-1 27.3 µM | OVCAR-8 > 100 µM | NCI/ADR-RES 26.3 µM | MDA-N 22.6 µM | HOP-92 57.5 µM | SNB-75 22.4 µM | SK-OV-3 30.5 µM | Malme-3M 35.2 µM | NCI-H226 22 µM | BT-549 21.8 µM | 786-0 96.6 µM | CCRF-CEM 12.7 µM | UACC-62 > 10 µM | MDA-MB-435 19.4 µM | Hs-578T 37.7 µM | OVCAR-5 32.8 µM | A498 25.1 µM | SN12C 44 µM | HCC 2998 34.4 µM | HL-60 27.2 µM | SNB-19 55.6 µM | NCI-H460 24.8 µM | OVCAR-4 36 µM | DU-145 23.7 µM | RXF 393 10.2 µM
33.7 µM: HCT-15

CC(C)c1nc(Cl)c(Cl)c(Cl)n1
0.695 µM: HCT-15
inactive: OVCAR-3 1.99 µM | SK-MEL-28 14.2 µM | SW-620 1.7 µM | HOP-62 12.6 µM | SF-539 9.2 µM | T47D 4.14 µM | A549 2.58 µM | HCT-116 1.33 µM | COLO 205 2.71 µM | MCF7 1.75 µM | M14 5.51 µM | SF-268 1.91 µM | EKVX 11.7 µM | KM12 8.39 µM | CAKI-1 2.09 µM | UACC-257 4.29 µM | PC-3 4.31 µM | RPMI-8226 1.31 µM | SK-MEL-5 16.2 µM | NCI-H23 4.06 µM | UO-31 1.19 µM | MOLT-4 1.8 µM | MDA-MB-231 8.85 µM | U-251 3.42 µM | SF-295 14.5 µM | IGROV-1 3.08 µM | OVCAR-8 2.1 µM | NCI/ADR-RES 5.78 µM | MDA-N 4.35 µM | HT-29 2.1 µM | HOP-92 3.24 µM | SNB-75 11.2 µM | SK-OV-3 17.7 µM | NCI-H226 17.7 µM | 786-0 2.99 µM | UACC-62 8.41 µM | MDA-MB-435 4.2 µM | Hs-578T 2.76 µM | OVCAR-5 5.77 µM | A498 23.8 µM | SN12C 4.24 µM | HCC 2998 3.49 µM | HL-60 1.71 µM | SNB-19 18.6 µM | NCI-H460 12.6 µM | OVCAR-4 15.5 µM | TK-10 11.4 µM | DU-145 7.69 µM | RXF 393 2.05 µM
active: K562 0.286 µM | ACHN 0.769 µM | SR 0.431 µM | NCI-H522 0.759 µM | Malme-3M 0.608 µM | BT-549 0.621 µM | CCRF-CEM 1.07 µM | LOX IMVI 0.246 µM
